# Experimental data from US6426435B1, “Substantive water-soluble bis-quaternary salts of cinnamidoalkylamines” (Galaxy Surfactants Ltd., priority 2000, dated 2002).
# Read-outs that look alike come from different tables or passages of the source.
# What was measured:
# [1] = UV absorption: molar extinction coefficient; assay type: physicochemical
# Protocol: Ethyl p-methoxy cinnamate (206.0 g, 1.0 mole), […] (306.0 g, 3.0 mole) and sodium methoxide (2.0 g) were charged in a pressure reactor. The air inside the reactor was flushed out by purging of nitrogen. The reaction mixture was then stirred at 180° C. (this generated pressure of 18 kg/cm^2) for 36 hours. The progress of reaction was monitored by disappearance of ethyl p-methoxy cinnamate on chromatography (TLC and HPLC). The TLC was performed on aluminium coated silica gel plates (Merck-60-F-254) and viewed with a UV lamp at 254 nm. HPLC was performed using reversed phase technique on a C-18 bonded (octadecyl silane) column and 60% aqueous methanol as mobile phase (1.0 ml/min) and detection at 280 nm. The excess amine was removed under vacuum.
# [2] = Protocol: Virgin hair (5.0 g) were washed with 10% SLES solution and rinsed with plain water. The tresses were treated for exactly 5.0 minutes with clear shampoo (containing 2% β,β′-di (p-methoxy cinnamidopropyldimethylammonium chloride) ethyl ether) as described in Example I that was diluted five times with water. After the treatment the tresses were washed thoroughly with copious amount of water. The adsorbed quaternary was extracted from the hair surface by immersing each tress in isopropanol at 65° C. for 30 minutes. A known volume of this isopropanol/quaternary ammonium salt mixture was analysed by UV-spectroscopy to determine its absorption intensity.
# [3] = remark: listed apart in the source
# Protocol: The major ingredients were mixed with heating to 50° C. until a uniform homogenous mixture was formed. The resulting mixture was then cooled to room temperature with continuous stirring. The required chelating agent, colour, perfume were added. The viscosity was adjusted to 2500 cps with sodium chloride.
# The substantivity experiment was performed as described under;
# All ingredients were heated together under stirring to 70° C. till the reaction mass became homogenous and transparent. The reaction mass was cooled to 40° C. and the required amounts of chelating agents, perfume and colour were added. The molten mass was cast in moulds of desired shape to yield transparent bathing bar.
# [4] = solid after removal of water
Compound,"molar extinction coefficient, ε ([1]; in methanol, at 290 nm, in M-1·cm-1 (unit assumed))","molar extinction coefficient, ε [1]","molar extinction coefficient, ε ([1]; in aqueous solution at 292 nm λmax)","substantivity ([2]; clear shampoo of Example III containing 2% compound, diluted five times with water, 5.0 minutes treatment)",deposition of quaternary on cotton fabric (substantivity) ([2]; detergent powder of Example VII (2.0% compound)),"substantivity ([2]; transparent bathing bar of Example V (2.0% compound), procedure of Example III)","compatibility with anionic surfactant ([3]; transparent bathing bar of Example V, transparency unaffected)",compatibility with anionic surfactant ([3]; transparent shampoo of Example III (SLES-2)),water solubility [4] [%]
COc1ccc(C=CC(=O)NCCCN(C)C)cc1 [p-Methoxy Cinnamidopropyldimethylamine],"24,224",,,,,,,,
"COc1ccc(C=CC(=O)NCCC[N+](C)(C)CCOCC[N+](C)(C)CCCNC(=O)C=Cc2ccc(OC)cc2)cc1.[Cl-].[Cl-] [β,β′-di(p-Methoxy Cinnamidopropyldimethylammonium Chloride) Ethyl Ether]",,"42,000","42,729",22 mg/100 g of hair,21 mg/100 g of cotton fabric,20 mg /100 g of hair,total compatibility,completely compatible,> 50
